Source: PMC4894409 (Scientific Reports, 2015)

Key:
[1] = test system: mice; test: Open field (OF) test; assay type: in vivo, Male Swiss mice
Protocol: (§1) Male Swiss mice (weighing between 25–30 g; 6–8 weeks old), provided by Central Animal House of the Federal University of Goiás, were used in all behavioural models. The experimental animals were kept in an intra-laboratory facility cage (32 × 18 × 16 cm) under controlled environmental conditions (23 ± 1 °C, 12 hr light-dark cycle) with access to food and water ad libitum. The experimental protocols (number 104/08) were approved by Ethical Committee of Federal University of Goiás in accordance to the international laws on the care and use of laboratory animals.
In the OF, animals were randomly divided into six groups [control (vehicle), 3 different doses of OAD, DZP 1 or 5 mg/kg]. Animals were treated with vehicle, OAD (5, 10 or 20 mg/kg, p.o), DZP (1 or 5 mg/kg, p.o) as described in our previous work[7][49], and placed in a circular open field [base area ( [drawing 2] ) = 62.80 cm^2 which is divided into 8 equal sectors enclosed in a 50 cm high wooden wall]. The test session (5-min duration) was videotaped in a sound-proof experimental room. Parameters like total crossing, freezing time, number of grooming and rearing activity, crossing at the centre and time spent at the centre of the open field were observed and scored.

[2] = test system: mice; test: Forced swimming (FS) test; assay type: in vivo, Male Swiss mice; settings: 5 or 10 mg/kg p.o., vs vehicle, p < 0.05
Protocol: as §1
In the FS model, mice were randomly divided into 5 groups [control (vehicle), 3 different doses of OAD and IMI]. Mice were exposed to a modified version of FS test[48] after oral administration of vehicle, OAD (5, 10 or 20 mg/kg) or IMI 15 mg/kg. FS apparatus is a cylindrical water container (42 cm in height, 18 cm in diameter) filled with water up to 30 cm (total volume ( [drawing 1] of 7635.06 cm^3 at 24 ± 2 °C). In this model, the initial escape-directed behaviour like swimming and climbing by mouse are generally followed with a relatively passive and immobile posture. The container was cleaned with 10% ethanol solution prior to the exposure of naïve mouse. This test session (6-min duration) was videotaped and the swimming and immobility time was later scored and analyzed.

Q: With C=CC(=O)O[C@H]1CC[C@]2(C)[C@H]3CC=C4[C@@H]5CC(C)(C)CC[C@]5(C(=O)O)CC[C@@]4(C)[C@]3(C)CC[C@H]2C1(C)C [D1, Oleanolic acid acrylate] as the compound, how does the “crossing at the centre of the OF” value ([1]; 10 mg/kg p.o., vs vehicle) read?
A: increase

Q: What about the “freezing time in the OF” value ([1]; 20 mg/kg p.o., vs vehicle) of the same compound?
A: increase

Q: What about the “other parameters of the OF test” value ([1]; 5, 10, 20 mg/kg p.o., parameters not named as changed, p > 0.05) of the same compound?
A: not altered

Q: And the “time spent at the centre of the OF” value ([1]; 10 and 20 mg/kg p.o., vs vehicle)?
A: increase

Q: What about the “immobility time in the FS test” value [2] of the same compound?
A: reduction

Q: What about the “swimming time in the FS test” value [2] of the same compound?
A: significant increase
